System: 1496 clinical isolates of E. coli
Experiment: Phenotypic antibiotic susceptibility testing, MicroScan WalkAway plus System, Neg MIC 45 panel
Type: cell-based
Details: for Phenotype of the E. coli isolates in words: 1496 E. coli isolates; for Measured Phenotype Susceptible (%) / Measured Phenotype Resistant (%): share of the 1496 E. coli isolates; for Measured Phenotype Resistant (%): resistant or intermediate combined as resistant
Description: Phenotypic antibiotic susceptibility testing was performed and an antibiotic response of resistant, intermediate or susceptible was assigned to each E. coli isolate per antibiotic based on minimal inhibitory concentrations as described in the MicroScan product insert. Phenotypic antibiotic susceptibility testing was performed on the 1496 E. coli isolates using the MicroScan WalkAway plus System and the Neg MIC 45 panel (P/N B1017-424) which covers 25 antibiotics. Cryopreserved isolates were sub-cultured twice on blood agar plates prior to antibiotic susceptibility testing. The MicroScan instrument was used to assign an antibiotic response of resistant, intermediate or susceptible for each isolate per antibiotic based on minimal inhibitory concentrations as described in the MicroScan product insert. Assignments of resistant or intermediate were combined and reported as resistant in this example. Assignments of susceptible are reported as such in this example.

Molecule | Phenotype of the E. coli isolates in words | Measured Phenotype Susceptible (%) | Measured Phenotype Resistant (%)
NCC[C@H](O)C(=O)N[C@@H]1C[C@H](N)[C@@H](O[C@H]2O[C@H](CN)[C@@H](O)[C@H](O)[C@H]2O)[C@H](O)[C@H]1O[C@H]1O[C@H](CO)[C@@H](O)[C@H](N)[C@H]1O [Amikacin] | the vast majority of isolates exhibited phenotypic susceptibility | 94% | 6%
CC1(C)S[C@@H]2[C@H](NC(=O)[C@H](N)c3ccccc3)C(=O)N2[C@H]1C(=O)O [Ampicillin] | the vast majority of isolates exhibited phenotypic resistance | 3% | 97%
C[C@H]1[C@H](NC(=O)/C(=N\OC(C)(C)C(=O)O)c2csc(N)n2)C(=O)N1S(=O)(=O)O [Aztreonam] | – | 9% | 91%
Cc1nnc(SCC2=C(C(=O)O)N3C(=O)[C@@H](NC(=O)Cn4cnnn4)[C@H]3SC2)s1 [Cefazolin] | the vast majority of isolates exhibited phenotypic resistance | 5% | 95%
CO/N=C(\C(=O)N[C@@H]1C(=O)N2C(C(=O)[O-])=C(C[N+]3(C)CCCC3)CS[C@H]12)c1csc(N)n1 [Cefepime] | – | 10% | 90%
CO/N=C(\C(=O)N[C@@H]1C(=O)N2C(C(=O)O)=C(COC(C)=O)CS[C@H]12)c1csc(N)n1 [Cefotaxime] | – | 9% | 91%
CO[C@@]1(NC(=O)Cc2cccs2)C(=O)N2C(C(=O)O)=C(COC(N)=O)CS[C@@H]21 [Cefoxitin] | – | 79% | 21%
CC(C)(O/N=C(\C(=O)N[C@@H]1C(=O)N2C(C(=O)[O-])=C(C[n+]3ccccc3)CS[C@H]12)c1csc(N)n1)C(=O)O [Ceftazidime] | – | 9% | 91%
CO/N=C(\C(=O)N[C@@H]1C(=O)N2C(C(=O)O)=C(CSc3nc(=O)c(=O)[nH]n3C)CS[C@H]12)c1csc(N)n1 [Ceftriaxone] | – | 8% | 92%
CO/N=C(\C(=O)N[C@@H]1C(=O)N2C(C(=O)O)=C(COC(N)=O)CS[C@H]12)c1ccco1 [Cefuroxime] | – | 7% | 93%
C[C@@H](O)[C@H]1C(=O)N2C(C(=O)O)=C(S[C@@H]3CN[C@H](C(=O)Nc4cccc(C(=O)O)c4)C3)[C@H](C)[C@H]12 [Ertapenem] | the vast majority of isolates exhibited phenotypic susceptibility | 98% | 4%
C[C@@H](O)[C@H]1C(=O)N2C(C(=O)O)=C(SCCN=CN)C[C@H]12 [Imipenem] | – | 97% | 3%
C[C@H]1COc2c(N3CCN(C)CC3)c(F)cc3c(=O)c(C(=O)O)cn1c23 [Levofloxacin] | – | 19% | 81%
C[C@@H](O)[C@H]1C(=O)N2C(C(=O)O)=C(S[C@@H]3CN[C@H](C(=O)N(C)C)C3)[C@H](C)[C@H]12 [Meropenem] | the vast majority of isolates exhibited phenotypic susceptibility | 98% | 2%
CCN1CCN(C(=O)N[C@@H](C(=O)N[C@@H]2C(=O)N3[C@@H]2SC(C)(C)[C@@H]3C(=O)O)c2ccccc2)C(=O)C1=O [Piperacillin] | the vast majority of isolates exhibited phenotypic resistance | 4% | 96%
CN(C)[C@@H]1C(O)=C(C(N)=O)C(=O)[C@@]2(O)C(O)=C3C(=O)c4c(O)cccc4[C@@](C)(O)[C@H]3C[C@@H]12 [Tetracycline] | – | 32% | 68%
CN(C)c1cc(NC(=O)CNC(C)(C)C)c(O)c2c1C[C@H]1C[C@H]3[C@H](N(C)C)C(O)=C(C(N)=O)C(=O)[C@@]3(O)C(O)=C1C2=O [Tigecycline] | the vast majority of isolates exhibited phenotypic susceptibility | 99.6% | 0.4%
NC[C@H]1O[C@H](O[C@H]2[C@H](O)[C@@H](O[C@H]3O[C@H](CO)[C@@H](O)[C@H](N)[C@H]3O)[C@H](N)C[C@@H]2N)[C@H](N)C[C@@H]1O [Tobramycin] | – | 45% | 55%
Amoxicillin/K Clavulanate | – | 43% | 57%
Ampicillin/Sulbactam | – | 16% | 84%
Gentamicin | – | 61% | 39%
Piperacillin/Tazobactam | – | 84% | 16%
Ticarcillin/K Clavulanate | – | 56% | 44%
Trimethoprim/Sulfamethoxazole | – | 36% | 64%
